Results as given in US5962640A, “Methods for preparing novel dipeptide compounds or pharmacuetically acceptable salts thereof” (Japan Energy Corporation, priority 1995, dated 1999).

Columns and labels:
[1] = target: T1, Recombinant HIV protease (Human immunodeficiency virus type 1 group M subtype B, UniProt P04585); assay: HIV protease inhibitory activity (cleavage of synthetic hepta-peptide, HPLC); type: biochemical; conditions: for inhibition at 5 µM: read-out: HIV protease inhibitory activity (%); for inhibition at 0.05 µM: concentration 50 nM (final), 37° C., 60 min
T1 construct: Recombinant HIV protease
Experimental: Recombinant HIV protease (Biochemistry, 250 (9), 264 (1990)) and synthetic hepta-peptide (H-Ser-Gln-Asn-Tyr-Pro-Ile-Val-OH/trifluoroacetic acid salt) were used for assay of protease activity. Peptide fragment H-Pro-Ile-Val-OH formed by cleavage between -Tyr . . . Pro of said substrate after a reaction in the presence of various concentration of tested compound at 37° C. for 60 min. was determined by reversed phase HPLC and the inhibitory rate was calculated (referred to Japanese laid-open unexamined patent, No. 170722/1993).
The concentration of tested compound represents the final concentration thereof of the reaction mixture.

[2] = Pharmacokinetics in rats, intravenous or intraduodenal administration, plasma concentration; type: in vivo; conditions: 10.0 mg/kg
Experimental: Metabolic characteristics of the dipeptide compounds of the present invention was evaluated using rats. Tested compounds dissolved in vehicle was administered intraduodenally or intravenously. After administration, blood was taken and the concentration of residual tested compound in plasma was analyzed. The dosage of the tested compound was described in table 3.

Structure (SMILES)	inhibition at 5 µM [1] [%]	inhibition at 0.05 µM [1] [%]	AUC ([2]; i.d.) [µg/mL/min]	AUC ([2]; i.v.) [µg/mL/min]
Cc1c(N)cccc1C(=O)N[C@@H](Cc1ccccc1)[C@H](O)C(=O)N1CSC[C@H]1C(=O)NC(C)(C)C [Compound of example 25, (R)-N-tert-butyl-3-[(2S,3S)-2-hydroxy-3-[3-amino-2-methylbenzoyl]amino-4-phenylbutanoyl]-1,3-thiazolidine-4-carboxamide]	81.3			
Cc1ccccc1CNC(=O)[C@H]1NC[C@@H](Cl)C1C(=O)[C@@H](O)[C@H](Cc1ccccc1)NC(=O)c1cccc(O)c1C (stereo partly drawn) [Compound of example 41, (2S,4S)-N-(2-methylbenzyl)-3-[(2S,3S)-3-(3-hydroxy-2-methylbenzoyl)amino-2-hydroxy-4-phenylbutanoyl]-4-chloropyrrolidine-2-carboxamide]	97.7	76.8		
Cc1c(O)cccc1C(=O)N[C@@H](Cc1ccccc1)[C@H](O)C(=O)N1CSC(C)(C)[C@H]1C(=O)NCc1ccccc1Cl [Compound of example 45, (R)-N-(2-chlorobenzyl)-3-[(2S,3S)-3-(3-hydroxy-2-methylbenzoyl)amino-2-hydroxy-4-phenylbutanoyl]-5,5-dimethylthiazolidine-4-carboxamide]	> 99	94.5		
CCCCNC(=O)[C@@H]1CSCN1C(=O)[C@@H](O)[C@H](Cc1ccccc1)NC(=O)c1cccc(O)c1C [Compound of example 39, (R)-N-n-butyl-3-[(2S,3S)-3-(3-hydroxy-2-methylbenzoyl)amino-2-hydroxy-4-phenylbutanoyl]-1,3-thiazolidine-4-carboxamide]	92	13.4		
CC(C)(C)NC(=O)[C@@H]1CSCN1C(=O)[C@@H](O)[C@H](Cc1ccccc1)NC(=O)c1ccc(O)cc1 [Compound of example 7, (R)-N-tert-butyl-3-[(2S,3S)-2-hydroxy-3-[4-hydroxybenzoyl]amino-4-phenylbutanoyl]-1,3-thiazolidine-4-carboxamide]	62.2			
Cc1ccccc1C(=O)N[C@@H](Cc1ccccc1)[C@H](O)C(=O)N1CSC[C@H]1C(=O)NC(C)(C)C [Compound of example 2, (R)-N-tert-butyl-3-[(2S,3S)-2-hydroxy-3-[2-methylbenzoyl]amino-4-phenylbutanoyl]-1,3-thiazolidine-4-carboxamide]	74.9			
Cc1c(O)cccc1C(=O)N[C@@H](Cc1ccccc1)[C@H](O)C(=O)N1CSC[C@H]1C(=O)NCc1ccccc1Cl [Compound of example 42, (R)-N-(2-chlorobenzyl)-3-[(2S,3S)-3-(3-hydroxy-2-methylbenzoyl)amino-2-hydroxy-4-phenylbutanoyl]-1,3-thiazolidine-4-carboxamide]	97.4	51.2		
Cc1cccc(C(=O)N[C@@H](Cc2ccccc2)[C@H](O)C(=O)N2CSC[C@H]2C(=O)NC(C)(C)C)c1C [Compound of example 26, (R)-N-tert-butyl-3-[(2S,3S)-2-hydroxy-3-(2,3-dimethylbenzoyl]amino-4-phenylbutanoyl]-1,3-thiazolidine-4-carboxamide]	77.9			
CC(C)(C)NC(=O)[C@@H]1CSCN1C(=O)[C@@H](O)[C@H](Cc1ccccc1)NC(=O)c1cc(O)cc(O)c1 [Compound of example 29, (R)-N-tert-butyl-3-[(2S,3S)-2-hydroxy-3-(3,5-dihydroxybenzoyl)amino-4-phenylbutanoyl]-1,3-thiazolidine-4-carboxamide]	75.6			
CC(C)(C)NC(=O)[C@@H]1CSCN1C(=O)[C@@H](O)[C@H](Cc1ccccc1)NC(=O)c1ccccc1 [Compound of example 1, (R)-N-tert-butyl-3-[(2S,3S)-2-hydroxy-3-[benzoyl]amino-4-phenylbutanoyl]-1,3-thiazolidine-4-carboxamide]	52			
CC(C)(C)NC(=O)[C@@H]1CSCN1C(=O)[C@@H](O)[C@H](Cc1ccccc1)NC(=O)c1ccc(C(=O)O)cc1 [Compound of example 13, (R)-N-tert-butyl-3-[(2S,3S)-2-hydroxy-3-[4-carboxybenzoyl]amino-4-phenylbutanoyl]-1,3-thiazolidine-4-carboxamide]	70.4			
Cc1ccccc1CNC(=O)[C@H]1N(C(=O)[C@@H](O)[C@H](Cc2ccccc2)NC(=O)c2cccc(O)c2C)CSC1(C)C [Compound of example 37, (R)-N-(2-methylbenzyl)-3-[(2S,3S)-3-(3-hydroxy-2-methylbenzoyl)amino-2-hydroxy-4-phenylbutanoyl]-5,5-dimethyl-1,3-thiazolidine-4-carboxamide]	> 99	95.8	55	131
Cc1c(N)cc(N)cc1C(=O)N[C@@H](Cc1ccccc1)[C@H](O)C(=O)N1CSC[C@H]1C(=O)NC(C)(C)C [Compound of example 33, (R)-N-tert-butyl-3-[(2S,3S)-2-hydroxy-3-(3,5-diamino-2-methylbenzoyl)amino-4-phenylbutanoyl]-1,3-thiazolidine-4-carboxamide]	85.2			
CC(C)(C)NC(=O)[C@@H]1CSCN1C(=O)[C@@H](O)[C@H](Cc1ccccc1)NC(=O)c1cccc(O)c1 [Compound of example 6, (R)-N-tert-butyl-3-[(2S,3S)-2-hydroxy-3-[3-hydroxybenzoyl]amino-4-phenylbutanoyl]-1,3-thiazolidine-4-carboxamide]	76			
Cc1cccc(C)c1CNC(=O)[C@@H]1CSCN1C(=O)[C@@H](O)[C@H](Cc1ccccc1)NC(=O)c1cccc(O)c1C [Compound of example 44, (R)-N-(2,6-dimethylbenzyl)-3-[(2S,3S)-3-(3-hydroxy-2-methylbenzoyl)amino-2-hydroxy-4-phenylbutanoyl]-1,3-thiazolidine-4-carboxamide]	97.9	75.2		
CCCc1c(O)cccc1C(=O)N[C@@H](Cc1ccccc1)[C@H](O)C(=O)N1CSC[C@H]1C(=O)NC(C)(C)C [Compound of example 32, (R)-N-tert-butyl-3-[(2S,3S)-2-hydroxy-3-(3-hydroxy-2-propylbenzoyl)amino-4-phenylbutanoyl]-1,3-thiazolidine-4-carboxamide]	92	17.2		
